This passage reports IC50 results from patent publication US8148391B2 (Cephalon, Inc., priority 2006, dated 2012).

For test [1], the target named is T1, baculovirus-expressed ALK (Homo sapiens, UniProt Q9UM73).
T1 construct: host or cells: baculovirus expression system
The test is described as follows: ALK Kinase Assay (ELISA-type, time-resolved fluorescence). Type of test: biochemical. A digest of the protocol: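 Substrate coating: phospholipase C-γ, 10 μg/mL in TBS. Kinase step: 30 ng/ml ALK, 15 min, 37° C. Detection and analysis: Eu-N1 PT66 antibody, with IC50 fitted as a sigmoidal variable-slope dose-response curve.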

In test [2] the target is T2, c-Met (cytoplasmic domain) (Homo sapiens, UniProt P08581).
T2 construct: 10 ng/mL c-Met (cytoplasmic domain, Invitrogen Corporation #PV3143); purchased Invitrogen Corporation PV3143
The test can be described thus: c-Met Kinase Assay (same methods as for ALK, with modifications). The class given is biochemical. The method in brief: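 This plate-based kinase format uses immobilized phospholipase C-γ as substrate, phosphorylated by c-Met cytoplasmic domain (10 ng/mL) at 37° C for 15 minutes.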

Where [3] appears, read: ALK kinase inhibition, 1 μM ATP, read-out: ALK Activity.
The mark [4] stands for this setting: c-Met kinase inhibition, 1 μM ATP, read-out: cMet Activity.
[5] abbreviates: ALK kinase inhibition, 1 μM ATP (Km level), read-out: ALK Activity.
Setting [6] is: c-Met kinase inhibition, 1 μM ATP (Km level), read-out: cMet Activity.
The mark [7] stands for this setting: 1 μM ATP (Km level), 30 ng/ml ALK, 37° C., 15 minutes, read-out: ALK Activity (ALK kinase inhibition, IC50 class).
[8] abbreviates: 1 μM ATP (Km level), 10 ng/mL c-Met, read-out: cMet Activity (c-Met kinase inhibition, IC50 class).
The mark [9] stands for this setting: 1 μM ATP (Km level), read-out: ALK Activity (ALK Kinase Inhibition, IC50).
Setting [10] is: 1 μM ATP (Km level), read-out: cMet Activity (c-Met Kinase Inhibition, IC50).

Read-outs that look alike come from different tables or passages of the source.

T2 sequence (P08581 956-1390 limits assumed): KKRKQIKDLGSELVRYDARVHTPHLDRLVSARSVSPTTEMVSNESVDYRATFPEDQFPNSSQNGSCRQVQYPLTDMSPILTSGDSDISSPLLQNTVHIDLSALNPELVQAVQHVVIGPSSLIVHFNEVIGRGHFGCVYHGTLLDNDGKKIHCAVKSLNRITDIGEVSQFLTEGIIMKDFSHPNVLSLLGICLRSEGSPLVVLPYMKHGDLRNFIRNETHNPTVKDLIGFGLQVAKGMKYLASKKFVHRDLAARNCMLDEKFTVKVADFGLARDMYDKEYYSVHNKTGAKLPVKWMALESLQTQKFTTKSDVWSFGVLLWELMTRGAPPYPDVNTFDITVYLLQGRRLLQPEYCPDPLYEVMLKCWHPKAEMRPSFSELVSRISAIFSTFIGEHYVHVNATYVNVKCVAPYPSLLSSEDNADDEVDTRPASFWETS
T1 sequence (Q9UM73 19-1620): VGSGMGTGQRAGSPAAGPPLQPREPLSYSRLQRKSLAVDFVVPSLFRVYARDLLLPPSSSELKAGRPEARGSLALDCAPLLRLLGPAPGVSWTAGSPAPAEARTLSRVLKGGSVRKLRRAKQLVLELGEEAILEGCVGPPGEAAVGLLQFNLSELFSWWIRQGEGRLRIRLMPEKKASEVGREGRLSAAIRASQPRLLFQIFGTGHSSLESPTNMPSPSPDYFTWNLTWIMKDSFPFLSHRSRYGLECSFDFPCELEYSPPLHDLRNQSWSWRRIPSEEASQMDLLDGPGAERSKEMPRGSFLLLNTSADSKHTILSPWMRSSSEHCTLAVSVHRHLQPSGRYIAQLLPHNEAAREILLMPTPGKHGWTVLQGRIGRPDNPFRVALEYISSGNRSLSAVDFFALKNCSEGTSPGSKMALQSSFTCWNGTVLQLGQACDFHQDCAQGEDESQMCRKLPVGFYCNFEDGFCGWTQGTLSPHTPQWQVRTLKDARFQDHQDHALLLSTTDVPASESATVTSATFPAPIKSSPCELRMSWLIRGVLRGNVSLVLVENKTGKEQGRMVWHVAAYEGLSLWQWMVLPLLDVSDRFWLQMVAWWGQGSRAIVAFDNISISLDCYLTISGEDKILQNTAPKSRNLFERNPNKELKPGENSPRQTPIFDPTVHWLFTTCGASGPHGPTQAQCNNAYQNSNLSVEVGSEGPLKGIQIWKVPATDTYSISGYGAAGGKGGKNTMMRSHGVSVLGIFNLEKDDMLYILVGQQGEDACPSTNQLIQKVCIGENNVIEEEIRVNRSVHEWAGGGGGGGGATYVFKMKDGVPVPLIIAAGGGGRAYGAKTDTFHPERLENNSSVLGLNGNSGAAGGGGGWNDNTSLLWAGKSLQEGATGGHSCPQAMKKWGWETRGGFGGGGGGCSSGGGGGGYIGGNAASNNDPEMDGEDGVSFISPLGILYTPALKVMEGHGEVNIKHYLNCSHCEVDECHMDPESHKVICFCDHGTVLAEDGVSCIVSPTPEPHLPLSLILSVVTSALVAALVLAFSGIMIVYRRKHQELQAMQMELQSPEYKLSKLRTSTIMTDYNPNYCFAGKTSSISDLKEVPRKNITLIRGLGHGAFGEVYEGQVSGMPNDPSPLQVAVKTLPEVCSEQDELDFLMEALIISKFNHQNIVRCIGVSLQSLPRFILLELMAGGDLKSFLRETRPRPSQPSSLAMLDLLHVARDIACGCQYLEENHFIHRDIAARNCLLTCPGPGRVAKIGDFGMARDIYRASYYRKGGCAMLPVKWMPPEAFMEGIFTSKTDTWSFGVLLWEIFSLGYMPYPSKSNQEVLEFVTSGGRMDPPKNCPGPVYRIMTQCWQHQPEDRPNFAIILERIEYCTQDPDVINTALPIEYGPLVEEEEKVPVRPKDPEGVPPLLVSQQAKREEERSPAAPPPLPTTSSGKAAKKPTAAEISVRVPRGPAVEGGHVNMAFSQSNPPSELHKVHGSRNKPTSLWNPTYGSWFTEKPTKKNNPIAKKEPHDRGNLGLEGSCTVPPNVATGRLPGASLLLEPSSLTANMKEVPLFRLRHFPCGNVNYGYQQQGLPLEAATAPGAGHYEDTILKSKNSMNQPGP

With `CNC(=O)c1ccccc1Nc1nc(Nc2c(OC)ccc3c2CCOC(=O)N3C)ncc1Cl` [Example 1517, 2-[5-Chloro-2-(2-methoxy-5-methyl-6-oxo-5,6,8,9-tetrahydro-7-oxa-5-aza-benzocyclohepten-1-ylamino)-pyrimidin-4-ylamino]-N-methyl-benzamide], the IC50 in test [1] (setting [3]) was 1000 to 10000 nM; in test [2] (setting [4]), more than 10000 nM.
In the same order, the values of `CNC(=O)c1cccc(F)c1Nc1nc(Nc2ccc3c(c2)NC(=O)C(NCCOC)CC3)ncc1Cl` (stereo not shown) [Example 1495, 2-{5-Chloro-2-[3-(2-methoxy-ethylamino)-2-oxo-2,3,4,5-tetrahydro-1H-benzo[b]azepin-8-ylamino]-pyrimidin-4-ylamino}-3-fluoro-N-methyl-benzamide] are 1000 to 10000 nM and 100 to 1000 nM.
As to `CN1CCCCc2cc(Nc3ncc(Cl)c(N[C@@H]4CCCC[C@H]4NS(C)(=O)=O)n3)ccc21` [Example 104, N-{(1R,2R)-2-[5-Chloro-2-(1-methyl-2,3,4,5-tetrahydro-1H-benzo[b]azepin-7-ylamino)-pyrimidin-4-ylamino]-cyclohexyl}-methanesulfonamide], the IC50 in test [1] (setting [5]) was less than 100 nM; in test [2] (setting [6]), 100 to 1000 nM.
For `CNC(=O)c1cccc(F)c1Nc1nc(Nc2ccc3c(c2)-n2ccnc2CCC3(C)C)ncc1Cl` [Example 1270, 2-[5-Chloro-2-(6,6-dimethyl-5,6-dihydro-4H-3,10b-diaza-benz[e]azulen-9-ylamino)-pyrimidin-4-ylamino]-3-fluoro-N-methyl-benzamide], the results for the IC50 in test [1] (setting [7]) and in test [2] (setting [8]) were 100 to 1000 nM and less than 100 nM, respectively.
As for `COCCN(C)C1CCc2ccc(Nc3ncc(Cl)c(N[C@H]4[C@@H](C(N)=O)[C@@H]5C=C[C@H]4C5)n3)c(OC)c2CC1` (single isomer, unassigned) [Example 701], the IC50 in test [1] (setting [9]) was less than 100 nM; in test [2] (setting [10]), more than 10000 nM.
`CNC(=O)c1ccccc1Nc1nc(Nc2cc3c(cc2OC)CCN(CC(C)(F)F)CC3)ncc1Cl` [Example 786, 2-{5-Chloro-2-[3-(2,2-difluoro-propyl)-8-methoxy-2,3,4,5-tetrahydro-1H-benzo[d]azepin-7-ylamino]-pyrimidin-4-ylamino}-N-methyl-benzamide]: the IC50 is less than 100 nM in test [1] (setting [9]) and more than 10000 nM in test [2] (setting [10]).
In the same order, the values of `COCCN1CCc2cc(Nc3ncc(Cl)c(NC4C5C=CC(C5)C4c4nc5ccccc5[nH]4)n3)c(OC)cc2CC1` (stereo not drawn) [Example 610, N*4*-[(2-exo-3-exo)-3-(1H-Benzoimidazol-2-yl)-bicyclo[2.2.1]hept-5-en-2-yl]-5-chloro-N*2*-[8-methoxy-3-(2-methoxy-ethyl)-2,3,4,5-tetrahydro-1H-benzo[d]azepin-7-yl]-pyrimidine-2,4-diamine] are 1000 to 10000 nM and more than 10000 nM.
In the same order, the values of `Cc1cccc(-c2ccccc2Nc2nc(Nc3ccc4c(c3)C(C)(C)CCC(=O)N4)ncc2Cl)n1` [Example 1008, 7-{5-Chloro-4-[2-(6-methyl-pyridin-2-yl)-phenylamino]-pyrimidin-2-ylamino}-5,5-dimethyl-1,3,4,5-tetrahydro-benzo[b]azepin-2-one] are less than 100 nM and 1000 to 10000 nM.
Take `CNC(=O)c1ccccc1Nc1nc(Nc2ccc3c(c2)N(C)CCCO3)ncc1Cl` [Example 1708, 2-[5-Chloro-2-(9-methyl-6,7,8,9-tetrahydro-5-oxa-9-aza-benzocyclohepten-2-ylamino)-pyrimidin-4-ylamino]-N-methyl-benzamide]: the IC50 in test [1] (setting [3]) and in test [2] (setting [4]) was less than 100 nM throughout.
Regarding `COc1cccnc1-c1ccccc1Nc1nc(Nc2ccc3c(c2)C(C)(C)CCC(=O)N3)ncc1Cl` [Example 989, 7-{5-Chloro-4-[2-(3-methoxy-pyridin-2-yl)-phenylamino]-pyrimidin-2-ylamino}-5,5-dimethyl-1,3,4,5-tetrahydro-benzo[b]azepin-2-one], the IC50 is less than 100 nM in test [1] (setting [9]) and 100 to 1000 nM in test [2] (setting [10]).
Consider `CNC(=O)c1c(Cl)sc(Cl)c1Nc1nc(Nc2ccc3c(c2)CCOC(=O)N3C)ncc1Cl` [Example 1774, 2,5-Dichloro-4-[5-chloro-2-(5-methyl-6-oxo-5,6,8,9-tetrahydro-7-oxa-5-aza-benzocyclohepten-2-ylamino)-pyrimidin-4-ylamino]-thiophene-3-carboxylic acid methylamide], for which the IC50 was 1000 to 10000 nM in test [1] (setting [3]) and 100 to 1000 nM in test [2] (setting [4]).
Take `CCN1CCc2ccc(Nc3ncc(Cl)c(Nc4ccc(N5CCOCC5)cc4)n3)cc2CC1` [Example 443, 5-Chloro-N*2*-(3-ethyl-2,3,4,5-tetrahydro-1H-benzo[d]azepin-7-yl)-N*4*-(4-morpholin-4-yl-phenyl)-pyrimidine-2,4-diamine]: the IC50 in test [1] (setting [5]) was less than 100 nM; in test [2] (setting [6]) it was 1000 to 10000 nM.
In the case of `COc1cc2c(cc1Nc1ncc(Cl)c(N[C@@H]3CCCC[C@H]3NS(C)(=O)=O)n1)CCN(CC(=O)N(C)C)CC2` [Example 258, 2-{7-[5-Chloro-4-((1R,2R)-2-methanesulfonylamino-cyclohexylamino)-pyrimidin-2-ylamino]-8-methoxy-1,2,4,5-tetrahydro-benzo[d]azepin-3-yl}-N,N-dimethyl-acetamide], the IC50 in test [1] (setting [5]) was less than 100 nM; in test [2] (setting [6]), more than 10000 nM.
In the same order, the values of `CNC(=O)c1cccc(OC)c1Nc1nc(Nc2ccc3c(c2)CCN(CCOC)CC3)ncc1Cl` [Example 315, 2-{5-Chloro-2-[3-(2-methoxy-ethyl)-2,3,4,5-tetrahydro-1H-benzo[d]azepin-7-ylamino]-pyrimidin-4-ylamino}-3-methoxy-N-methyl-benzamide] are 100 to 1000 nM and 100 to 1000 nM.
For the compound `CNC(=O)[C@H]1[C@@H](Nc2nc(Nc3ccc4c(c3)CCN(CCOC)CC4)ncc2Cl)[C@@H]2C=C[C@H]1C2` (relative stereo) [Example 615, (2-exo-3-exo)-3-{5-Chloro-2-[3-(2-methoxy-ethyl)-2,3,4,5-tetrahydro-1H-benzo[d]azepin-7-ylamino]-pyrimidin-4-ylamino}-bicyclo[2.2.1]hept-5-ene-2-carboxylic acid methylamide], the IC50 was less than 100 nM in test [1] (setting [9]) and 100 to 1000 nM in test [2] (setting [10]).
On to `CCN1C2CCC1c1c(ccc(Nc3ncc(Cl)c(N[C@@H]4CCCC[C@H]4NS(C)(=O)=O)n3)c1OC)C2` (stereo partly drawn) [Example 93, N-{(1R,2R)-2-[5-Chloro-2-(12-ethyl-3-methoxy-12-aza-tricyclo[7.2.1.0*2,7*]dodeca-2(7),3,5-trien-4-ylamino)-pyrimidin-4-ylamino]-cyclohexyl}-methanesulfonamide], for which the IC50 in test [1] (setting [5]) and in test [2] (setting [6]) was more than 10000 nM each time.
Regarding `NC(=O)[C@@H]1[C@H](Nc2nc(Nc3ccc4c(c3)CCC(N3CCOCC3)CC4)ncc2Cl)[C@H]2C=C[C@@H]1C2` (single isomer, unassigned) [Example 681], the IC50 in test [1] (setting [9]) is less than 100 nM; in test [2] (setting [10]) it was 100 to 1000 nM.
On to “8-{5-Chloro-4-[2-(2-morpholin-4-yl-ethoxy)-phenylamino]-pyrimidin-2-ylamino}-1,3,4,5-tetrahydro-benzo[b]azepin-2-one [Example 1464]”, for which the IC50 was 1000 to 10000 nM in test [1] (setting [3]) and more than 10000 nM in test [2] (setting [4]).
In the same order, the values of `COc1cc2c(cc1Nc1ncc(Cl)c(Nc3ccccc3S(=O)(=O)N3CCC(O)C3)n1)CCN(CCO)CC2` (stereo not shown) [Example 1551, 1-(2-{5-Chloro-2-[3-(2-hydroxy-ethyl)-8-methoxy-2,3,4,5-tetrahydro-1H-3-benzazepin-7-ylamino]-pyrimidin-4-ylamino}-benzenesulfonyl)-pyrrolidin-3-ol] are less than 100 nM and 100 to 1000 nM.
Turning to `COCCN1CCc2ccc(Nc3ncc(Cl)c(Nc4ccccc4C(=O)NCC4CC4)n3)cc2CC1` [Example 1421, 2-{5-Chloro-2-[3-(2-methoxy-ethyl)-2,3,4,5-tetrahydro-1H-benzo[d]azepin-7-ylamino]-pyrimidin-4-ylamino}-N-cyclopropylmethyl-benzamide], the IC50 is less than 100 nM in test [1] (setting [7]) and 1000 to 10000 nM in test [2] (setting [8]).
In the same order, the values of `CNC(=O)c1cc(-c2cnn(C)c2)cc(F)c1Nc1nc(Nc2ccc3c(c2)OCCCN3C(=O)OC)ncc1Cl` [Example 1434, 3-{5-Chloro-4-[2-fluoro-6-methylcarbamoyl-4-(1-methyl-1H-pyrazol-4-yl)-phenylamino]-pyrimidin-2-ylamino}-7,8-dihydro-6H-5-oxa-9-aza-benzocycloheptene-9-carboxylic acid methyl ester] are less than 100 nM and less than 100 nM.
Turning to `COc1cc(N2CCOCC2)ccc1Nc1nc(Nc2ccc3c(c2OC)CCC(N2CCCC(O)C2)CC3)ncc1Cl` (mixture of isomers) [Example 913, 1-{2-[5-Chloro-4-(2-methoxy-4-morpholin-4-yl-phenylamino)-pyrimidin-2-ylamino]-1-methoxy-6,7,8,9-tetrahydro-5H-benzocyclohepten-7-yl}-piperidin-3-ol], the IC50 is less than 100 nM in test [1] (setting [9]) and more than 10000 nM in test [2] (setting [10]).
For the compound `CC1(C)CCC(=O)Nc2ccc(Nc3ncc(Cl)c(Nc4c(F)cccc4C(=O)NCC#N)n3)cc21` [Example 1044, 2-[5-Chloro-2-(5,5-dimethyl-2-oxo-2,3,4,5-tetrahydro-1H-benzo[b]azepin-7-ylamino)-pyrimidin-4-ylamino]-N-cyanomethyl-3-fluoro-benzamide], the IC50 in test [1] (setting [7]) and in test [2] (setting [8]) was less than 100 nM each time.
